# Values quoted from earlier work, collected in patent US10034846B2, “Famciclovir and celecoxib combination therapy for functional somatic syndromes” (INNOVATIVE MED CONCEPTS, LLC, priority 2012, dated 2018).
# System: fibromyalgia patients
# Details: Kendall et al., J. Rheumatology (2004) 31, 783-784
structure (smiles),measurement,value
CC(C)[C@H](N)C(=O)OCCOCn1cnc2c(=O)[nH]c(N)nc21 [valacyclovir],Treatment of fibromyalgia patients,not successful
